According to ChEMBL document CHEMBL1240479, “Exploring benzcyclo derivatives as potent aromatase inhibitors using ligand-based modeling studies” (Eur J Med Chem, 2010):

molecular target: T1, Aromatase (Homo sapiens, UniProt P11511); assay: Inhibition of aromatase
T1 sequence (P11511 whole entry): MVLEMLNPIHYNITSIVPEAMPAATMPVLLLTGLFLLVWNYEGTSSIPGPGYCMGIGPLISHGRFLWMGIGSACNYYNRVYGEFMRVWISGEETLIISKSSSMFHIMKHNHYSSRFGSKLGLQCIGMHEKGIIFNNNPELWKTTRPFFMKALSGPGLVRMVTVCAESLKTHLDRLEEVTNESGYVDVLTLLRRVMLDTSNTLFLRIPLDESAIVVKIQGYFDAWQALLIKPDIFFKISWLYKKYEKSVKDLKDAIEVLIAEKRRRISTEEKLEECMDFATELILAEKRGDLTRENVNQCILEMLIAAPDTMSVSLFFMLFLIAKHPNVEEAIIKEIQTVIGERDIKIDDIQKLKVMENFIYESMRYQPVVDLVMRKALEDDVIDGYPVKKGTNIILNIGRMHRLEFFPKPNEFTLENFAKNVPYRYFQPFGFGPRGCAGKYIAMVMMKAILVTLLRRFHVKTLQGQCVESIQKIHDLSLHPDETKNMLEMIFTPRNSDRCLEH

IC50 | SMILES
3.4 µM | Brc1ccc2c(c1)CCC2=Cc1ccncc1
3.68 µM | C(=C(c1ccccc1)c1ccccc1)c1cccnc1
3.96 µM | Brc1ccc2c(c1)CC/C2=C/c1ccncc1
